In patent EP0512684B1, “Synergistic herbicidal compositions” (DOWELANCO, priority 1991, dated 1992):

Tests used:
Assay type in all cases: in vivo
Fumaria officinalis [1] = assay: Postemergent weed control, field trials (Example II)
Procedure: In all Examples, the percent kill and control is measured on a scale of 0 percent = no kill and control 100 percent = complete kill and control. Expected control is calculated as 100 -((% control by Compound A) x (% control by Compound B))/(100) [formula] where % control= 100-actual control according to the technique described in Colby, "Calculating Synergistic and Antagonistic Responses of Herbicidal Combinations", Weeds, Volume 15 (1967), pages 20-22 and Colby, "Greenhouse Evaluation of Herbicidal Combinations", Proc. NEWCC, No. 19, pages 312-320. The percent increase over the expected control is calculated as (Actual control)/(Expected Control)x 100 - 100 [formula] Table I A number of compositions in accordance with the present invention were prepared as in Example I and evaluated in field trials to determine their effectiveness in the postemergent control of the weed Fumaria officinalis growing in the presence of spring barley of the variety Triumph. Seeds of the plants spring barley of the variety Triumph and the weed specie Fumaria officinalis were planted in plots 6 meters x 3 meters composed of calcareous clay loam soil. Two months after planting, the plants were sprayed at a rate of 200 litre/hectare with one of the compositions having an active material control such as to give treatment rates shown in Table VI. […]

Lamium purpureum [2] = assay: Weed control by reduction in fresh weight (Example IV)
Procedure: (§1) In all Examples, the percent kill and control is measured on a scale of 0 percent = no kill and control 100 percent = complete kill and control. Expected control is calculated as 100 -((% control by Compound A) x (% control by Compound B))/(100) [formula] where % control= 100-actual control according to the technique described in Colby, "Calculating Synergistic and Antagonistic Responses of Herbicidal Combinations", Weeds, Volume 15 (1967), pages 20-22 and Colby, "Greenhouse Evaluation of Herbicidal Combinations", Proc. NEWCC, No. 19, pages 312-320. The percent increase over the expected control is calculated as (Actual control)/(Expected Control)x 100 - 100 [formula] Table I An emulsifiable concentrate of fluroxypyr methyl ester (as compound B) was prepared having the following composition. Varying amounts of this emulsifiable concentrate containing 100 g/l Fluroxypyr methyl ester (as acid equivalent) were added to a suspension concentrate of compound A prepared as in Example I, to provide the desired concentration of Compound B. The resulting formulation was tested against the following weeds, at the growth stage indicated, by the method described above. [table] In each case, the composition was applied ata rate of 200 litres per hectare. The percent of control was assessed by visual percent control (tables VIII to XII) and also by measurement of fresh weight (tables XIII to XVII).

Lamium purpureum [3] = assay: Postemergent weed control, greenhouse (Example I)
Procedure: (§2) In all Examples, the percent kill and control is measured on a scale of 0 percent = no kill and control 100 percent = complete kill and control. Representative compositions of the present invention were evaluated to determine their effectiveness in synergistic postemergent weed control operations. Suspension emulsions containing varying concentrations of the methylheptyl ester of ((4-amino-3,5-dichloro-6-fluoro-2-pyridinyl)oxy)-acetic acid (Compound B) and N-(2,6-dichloro-3-methylphenyl)-5,7-dimethoxy-1,2,4,-triazolo(1,5a)pyrimidine-2-sulfonamide (Compound A), were prepared as follows: A 250 g per litre suspension concentrate of Compound A was prepared by wet-milling the following ingredients, until a particle size distribution with a volume median diameter of about 2μm was obtained. Varying amounts of the resulting suspension concentrate were added to water to provide the desired concentration of Compound A. Similarly, varying amounts of a commercially available emulsifiable concentrate containing 200 g/l (as acid equivalent) of fluroxypyr 1 methylheptyl ester (Trade Mark […]-2) were added, to provide the desired concentration of Compound B. In each of the tests which follow, the composition was applied at a rate of 200 litres per hectare. Accordingly, in each case, the amount of water to which the suspension concentrate of Compound A and the emulsifiable concentrate of Compound B was added was sufficient to provide the desired application rates, when the resulting composition was used at this application rate. Seeds of the weed species Bilderdykia convolvulus, Viola arvensis, Lamium purpureum, Chenopodium album and Fumaria officinalis, and seeds of the crop plant winter wheat variety Avalon, were planted in beds of good agricultural soil and grown in a greenhouse. […] The results are shown in Tables I to V. In the tables which follow, those runs which include only one but not both of Compound A and Compound B are included as controls. Expected control is calculated as 100 -((% control by Compound A) x (% control by Compound B))/(100) [formula] where % control= 100-actual control according to the technique described in Colby, "Calculating Synergistic and Antagonistic Responses of Herbicidal Combinations", Weeds, Volume 15 (1967), pages 20-22 and Colby, "Greenhouse Evaluation of Herbicidal Combinations", Proc. NEWCC, No. 19, pages 312-320. The percent increase over the expected control is calculated as (Actual control)/(Expected Control)x 100 - 100 [formula]

Viola arvensis [4] = assay: Postemergent weed control, greenhouse (Example I)
Procedure: as §2

Chenopodium album = assay: Postemergent weed control, greenhouse (Example I)
Procedure: as §2

Fumaria officinalis [5] = assay: Postemergent weed control, greenhouse (Example I)
Procedure: as §2

Bilderdykia convolvulus = assay: Postemergent weed control, greenhouse (Example I)
Procedure: as §2

Viola arvensis [6] = assay: Post-emergent weed control by reduction in fresh weight (Examples V, VI and VII)
Procedure: (§3) In all Examples, the percent kill and control is measured on a scale of 0 percent = no kill and control 100 percent = complete kill and control. Expected control is calculated as 100 -((% control by Compound A) x (% control by Compound B))/(100) [formula] where % control= 100-actual control according to the technique described in Colby, "Calculating Synergistic and Antagonistic Responses of Herbicidal Combinations", Weeds, Volume 15 (1967), pages 20-22 and Colby, "Greenhouse Evaluation of Herbicidal Combinations", Proc. NEWCC, No. 19, pages 312-320. The percent increase over the expected control is calculated as (Actual control)/(Expected Control)x 100 - 100 [formula] Table I A 20% w/w suspension concentrate of fluroxypyr acid in water was prepared by wet milling the ingredients shown in Table XVIII until a particle size distribution with a volume median diameter of about 2µm was obtained. Varying amounts of the resulting suspension concentrate were added to water to provide the desired concentration of fluroxypyr acid. […] Varying amounts of the resulting solutions were further diluted with water to provide the desired concentration of the fluroxypyr salt. Similarly, varying amounts of the suspension concentrate of compound A prepared as in Example 1 were added, to provide the desired concentration of compound A. The formulations resulting from Examples V, VI and VII were evaluated to determine their effectiveness in the post-emergent control of the weeds Viola arvensis, Galium aparine, and Matricaria inodora.

Matricaria inodora = assay: as above
Procedure: as §3

Viola arvensis [7] = assay: Weed control, visual percent control (Example IV)
Procedure: as §1

Galium aparine = assay: Weed control, visual percent control (Example IV)
Procedure: as §1

Veronica persica = assay: Weed control, visual percent control (Example IV)
Procedure: as §1

Structure (SMILES): COc1cc(OC)n2nc(S(=O)(=O)Nc3c(Cl)ccc(C)c3Cl)nc2n1 [Cmpd A, N-(2,6-dichloro-3-methylphenyl)-5,7-dimethoxy-1,2,4,-triazolo(1,5a)pyrimidine-2-sulfonamide]
- Actual Control 28 days after treatment (%) (Fumaria officinalis [1]; Cmpd A 10.0 g/ha alone): 0.0%
- Actual Control 28 days after treatment (%) (Fumaria officinalis [1]; Cmpd A 20.0 g/ha alone): 15.0%
- Actual Reduction (%) 19 days after treatment (Lamium purpureum [2]; Cmpd A 3.125 g/ha): 4%
- Actual Reduction (%) 19 days after treatment (Lamium purpureum [2]; Cmpd A 6.25 g/ha): 0%
- Actual Reduction (%) 19 days after treatment (Lamium purpureum [2]; Cmpd A 12.5 g/ha): 19%
- Actual Reduction (%) 19 days after treatment (Lamium purpureum [2]; Cmpd A 25.0 g/ha): 11%
- Actual Control (%) 12 days after treatment (Lamium purpureum [3]; Cmpd A 6.25 g/ha alone): 18%
- Actual Control (%) 12 days after treatment (Lamium purpureum [3]; Cmpd A 12.50 g/ha alone): 24%
- Actual Control (%) 12 days after treatment (Lamium purpureum [3]; Cmpd A 25.00 g/ha alone): 25%
- Actual Control (%) 12 days after treatment (Lamium purpureum [3]; Cmpd A 50.00 g/ha alone): 23%
- Actual Control (%) 17 days after treatment (Viola arvensis [4]; Cmpd A 6.25 g/ha alone): 15%
- Actual Control (%) 17 days after treatment (Viola arvensis [4]; Cmpd A 12.50 g/ha alone): 36%
- Actual Control (%) 17 days after treatment (Viola arvensis [4]; Cmpd A 25.00 g/ha alone): 39%
- Actual Control (%) 17 days after treatment (Viola arvensis [4]; Cmpd A 50.00 g/ha alone): 50%
- Actual Control 19 days after treatment (%) (Chenopodium album; Cmpd A 3.125 g/ha alone): 47%
- Actual Control 19 days after treatment (%) (Chenopodium album; Cmpd A 6.25 g/ha alone): 60%
- Actual Control 19 days after treatment (%) (Chenopodium album; Cmpd A 12.50 g/ha alone): 55%
- Actual Control 19 days after treatment (%) (Chenopodium album; Cmpd A 25.00 g/ha alone): 60%
- Actual Control 19 days after treatment (%) (Fumaria officinalis [5]; Cmpd A 3.125 g/ha alone): 5%
- Actual Control 19 days after treatment (%) (Fumaria officinalis [5]; Cmpd A 6.25 g/ha alone): 18%
- Actual Control 19 days after treatment (%) (Fumaria officinalis [5]; Cmpd A 12.50 g/ha alone): 0%
- Actual Control 19 days after treatment (%) (Fumaria officinalis [5]; Cmpd A 25.00 g/ha alone): 18%
- Actual Control (%) 32 days after treatment (Bilderdykia convolvulus; Cmpd A 6.25 g/ha alone): 0%
- Actual Control (%) 32 days after treatment (Bilderdykia convolvulus; Cmpd A 12.50 g/ha alone): 45%
- Actual Control (%) 32 days after treatment (Bilderdykia convolvulus; Cmpd A 25.00 g/ha alone): 30%
- Actual Control (%) 32 days after treatment (Bilderdykia convolvulus; Cmpd A 50.00 g/ha alone): 53%
- Actual Control (%) 23 days after treatment (Viola arvensis [6]; Cmpd A 6.25 g/ha): 20%
- Actual Control (%) 23 days after treatment (Viola arvensis [6]; Cmpd A 6.25 g/ha, Table XX): 20%
- Actual Control (%) 23 days after treatment (Viola arvensis [6]; Cmpd A 12.50 g/ha): 50%
- Actual Control (%) 23 days after treatment (Viola arvensis [6]; Cmpd A 12.50 g/ha, Table XX): 50%
- Actual Control (%) 23 days after treatment (Viola arvensis [6]; Cmpd A 25.00 g/ha): 52%
- Actual Control (%) 23 days after treatment (Viola arvensis [6]; Cmpd A 25.00 g/ha, Table XX): 52%
- Actual Control (%) 23 days after treatment (Viola arvensis [6]; Cmpd A 50.00 g/ha): 60%
- Actual Control (%) 23 days after treatment (Viola arvensis [6]; Cmpd A 50.00 g/ha, Table XX): 60%
- Actual Control (%) 17 days after treatment (Matricaria inodora; Cmpd A 6.25 g/ha): 7%
- Actual Control (%) 17 days after treatment (Matricaria inodora; Cmpd A 12.50 g/ha): 32%
- Actual Control (%) 17 days after treatment (Matricaria inodora; Cmpd A 25.00 g/ha): 75%
- Actual Control (%) 17 days after treatment (Matricaria inodora; Cmpd A 50.00 g/ha): 72%
- Actual Control (%) 19 days after treatment (Viola arvensis [7]; Cmpd A 3.125 g/ha alone): 22%
- Actual Control (%) 19 days after treatment (Viola arvensis [7]; Cmpd A 6.25 g/ha alone): 12%
- Actual Control (%) 19 days after treatment (Viola arvensis [7]; Cmpd A 12.5 g/ha alone): 55%
- Actual Control (%) 19 days after treatment (Viola arvensis [7]; Cmpd A 25.0 g/ha alone): 72%
- Actual Control (%) 19 days after treatment (Galium aparine; Cmpd A 3.125 g/ha alone): 0%
- Actual Control (%) 19 days after treatment (Galium aparine; Cmpd A 6.25 g/ha alone): 0%
- Actual Control (%) 19 days after treatment (Galium aparine; Cmpd A 12.5 g/ha alone): 0%
- Actual Control (%) 19 days after treatment (Galium aparine; Cmpd A 25.0 g/ha alone): 0%
- Actual Control (%) 19 days after treatment (Veronica persica; Cmpd A 3.125 g/ha alone): 10%
- Actual Control (%) 19 days after treatment (Veronica persica; Cmpd A 6.25 g/ha alone): 20%
- Actual Control (%) 19 days after treatment (Veronica persica; Cmpd A 12.5 g/ha alone): 28%
- Actual Control (%) 19 days after treatment (Veronica persica; Cmpd A 25.0 g/ha alone): 30%
